34 compounds from US7598382B2, “Aryl substituted imidazoquinolines” (Coley Pharmaceutical Group, Inc., priority 2002, dated 2009) can be followed below.

SMILES strings stand for the structures.

With `CC(C)Cn1cnc2c(N)nc3ccc(CCc4ccccc4)cc3c21` [Example 123, 1-(2-Methylpropyl)-8-phenethyl-1H-imidazo[4,5-c]quinolin-4-amine], the melting point is 175 to 178 °C.

Compound `Cc1nc2c(N)nc3cc(-c4ccccc4)ccc3c2n1CCCS(C)(=O)=O` [Example 124, 2-Methyl-1-(3-methanesulfonylpropyl)-7-phenyl-1H-imidazo[4,5-c]quinolin-4-amine] gave a melting point of 203 to 205 °C.

As for `CCOCc1nc2c(N)nc3cc(-c4ccsc4)ccc3c2n1CC(C)(C)O` [Example 125, 1-[4-Amino-2-ethoxymethyl-7-(thiophen-3-yl)-1H-imidazo[4,5-c]quinolin-1-yl]-2-methylpropan-2-ol], the melting point was 204 to 205 °C.

With `CCOCc1nc2c(N)nc3cc(-c4cccnc4)ccc3c2n1CC(C)(C)O` [Example 126, 1-[4-Amino-2-ethoxymethyl-7-(pyridin-3-yl)-1H-imidazo[4,5-c]quinolin-1-yl]-2-methylpropan-2-ol], the melting point lay in the range of 197 to 199 °C.

`CCOCc1nc2c(N)nc3cc(-c4ccncc4)ccc3c2n1CC(C)(C)O` [Example 127, 1-[4-Amino-2-ethoxymethyl-7-(pyridin-4-yl)-1H-imidazo[4,5-c]quinolin-1-yl]-2-methylpropan-2-ol] had a melting point of 220 to 221 °C.

Turning to `CCOCc1nc2c(N)nc3cc(-c4cn[nH]c4)ccc3c2n1CC(C)(C)O` [Example 128, 1-[4-Amino-2-ethoxymethyl-7-(1H-pyrazol-4-yl)-1H-imidazo[4,5-c]quinolin-1-yl]-2-methylpropan-2-ol], the melting point was above 250 °C.

Turning to `CCOCc1nc2c(N)nc3cc(-c4cccc(C(=O)N5CCCC5)c4)ccc3c2n1CC(C)(C)O` [Example 129, {3-[4-Amino-2-ethoxymethyl-1-(2-hydroxy-2-methylpropyl)-1H-imidazo[4,5-c]quinolin-7-yl]phenyl}pyrrolidin-1-ylmethanone], the melting point was 216.5 to 217.5 °C.

`CCOCc1nc2c(N)nc3cc(-c4cccc(C(=O)N5CCOCC5)c4)ccc3c2n1CC(C)(C)O` [Example 130, {3-[4-Amino-2-ethoxymethyl-1-(2-hydroxy-2-methylpropyl)-1H-imidazo[4,5-c]quinolin-7-yl]phenyl}morpholin-4-ylmethanone] yielded a melting point of 152 to 154 °C.

In turn, `CCOCc1nc2c(N)nc3cc(-c4ccccc4)ccc3c2n1CC(C)(C)O` [Example 131, 1-(4-Amino-2-ethoxymethyl-7-phenyl-1H-imidazo[4,5-c]quinolin-1-yl)-2-methylpropan-2-ol] came in with a melting point of 211 to 212 °C.

For the compound `CCOCc1nc2c(N)nc3cc(-c4cncc(CO)c4)ccc3c2n1CC(C)(C)O` [Example 133, 1-[4-Amino-2-ethoxymethyl-7-(5-hydroxymethylpyridin-3-yl)-1H-imidazo[4,5-c]quinolin-1-yl]-2-methylpropan-2-ol], the melting point is 188 to 190 °C.

Compound `CCOCc1cncc(-c2ccc3c(c2)nc(N)c2nc(COCC)n(CC(C)(C)O)c23)c1` [Example 134, 1-[4-Amino-2-ethoxymethyl-7-(5-ethoxymethylpyridin-3-yl)-1H-imidazo[4,5-c]quinolin-1-yl]-2-methylpropan-2-ol] gave a melting point of 156 to 156.5 °C.

For the compound `CCOCc1nc2c(N)nc3cc(-c4cccc(C(=O)O)c4)ccc3c2n1CC(C)(C)O` [Example 135, 3-[4-Amino-2-ethoxymethyl-1-(2-hydroxy-2-methylpropyl)-1H-imidazo[4,5-c]quinolin-7-yl]benzoic acid], the melting point was above 250 °C.

Take `COCCc1nc2c(N)nc3cc(-c4ccccc4)ccc3c2n1CC(C)(C)O` [Example 136, 1-[4-Amino-2-(2-methoxyethyl)-7-phenyl-1H-imidazo[4,5-c]quinolin-1-yl]-2-methylpropan-2-ol]: the melting point was 226 to 227 °C.

As for `COCCc1nc2c(N)nc3cc(-c4ccsc4)ccc3c2n1CC(C)(C)O` [Example 137, 1-[4-Amino-2-(2-methoxyethyl)-7-(thiophen-3-yl)-1H-imidazo[4,5-c]quinolin-1-yl]-2-methylpropan-2-ol], the melting point lay within 233 to 234 °C.

In the case of `COCCc1nc2c(N)nc3cc(-c4cccnc4)ccc3c2n1CC(C)(C)O` [Example 138, 1-[4-Amino-2-(2-methoxyethyl)-7-(pyridin-3-yl)-1H-imidazo[4,5-c]quinolin-1-yl]-2-methylpropan-2-ol], the melting point lay in the range of 158 to 160 °C.

In turn, `COCCc1nc2c(N)nc3cc(-c4cccc(CO)c4)ccc3c2n1CC(C)(C)O` [Example 140, 1-[4-Amino-7-(3-hydroxymethylphenyl)-2-(2-methoxyethyl)-1H-imidazo[4,5-c]quinolin-1-yl]-2-methylpropan-2-ol] showed a melting point of 212 to 213 °C.

In turn, `COCCc1nc2c(N)nc3cc(-c4cncc(CO)c4)ccc3c2n1CC(C)(C)O` [Example 141, 1-[4-Amino-7-(5-hydroxymethylpyridin-3-yl)-2-(2-methoxyethyl)-1H-imidazo[4,5-c]quinolin-1-yl]-2-methylpropan-2-ol] yielded a melting point of 210 to 211 °C.

For the compound `CCc1nc2c(N)nc3cc(-c4cccnc4)ccc3c2n1CC(C)(C)O` [Example 142, 1-[4-Amino-2-ethyl-7-(pyridin-3-yl)-1H-imidazo[4,5-c]quinolin-1-yl]-2-methylpropan-2-ol], the melting point is 245 to 247 °C.

In the case of `CCc1nc2c(N)nc3cc(-c4ccncc4)ccc3c2n1CC(C)(C)O` [Example 143, 1-[4-Amino-2-ethyl-7-(pyridin-4-yl)-1H-imidazo[4,5-c]quinolin-1-yl]-2-methylpropan-2-ol], the melting point was above 250 °C.

Compound `COCCc1nc2c(N)nc3cc(-c4cccnc4)ccc3c2n1CC(C)C` [Example 145, 2-(2-Methoxyethyl)-1-(2-methylpropyl)-7-(pyridin-3-yl)-1H-imidazo[4,5-c]quinolin-4-amine] had a melting point of 207 to 208 °C.

`COCCc1nc2c(N)nc3cc(-c4cncc(CO)c4)ccc3c2n1CC(C)C` [Example 146, {5-[4-Amino-2-(2-methoxyethyl)-1-(2-methylpropyl)-1H-imidazo[4,5-c]quinolin-7-yl]pyridin-3-yl}methanol] displayed a melting point of 202 to 204 °C.

Turning to `CCOCc1nc2c(N)nc3ccc(C=Cc4ccccc4)cc3c2n1CC(C)(C)O` [Example 147, 1-(4-Amino-2-ethoxymethyl-8-styryl-1H-imidazo[4,5-c]quinolin-1-yl)-2-methylpropan-2-ol], the melting point is 217 to 218 °C.

The compound `CCOCc1nc2c(N)nc3ccc(-c4cccnc4)cc3c2n1CC(C)(C)O` [Example 148, 1-[4-Amino-2-ethoxymethyl-8-(pyridin-3-yl)-1H-imidazo[4,5-c]quinolin-1-yl]-2-methylpropan-2-ol] yielded a melting point of 222 to 223 °C.

`CCOCc1nc2c(N)nc3ccc(-c4cncc(CO)c4)cc3c2n1CC(C)(C)O` [Example 150, 1-[4-Amino-2-ethoxymethyl-8-(5-hydroxymethylpyridin-3-yl)-1H-imidazo[4,5-c]quinolin-1-yl]-2-methylpropan-2-ol] displayed a melting point of 230 to 232 °C.

Consider `CCOCc1nc2c(N)nc3ccc(CCc4ccccc4)cc3c2n1CC(C)(C)O` [Example 151, 1-(4-Amino-2-ethoxymethyl-8-phenethyl-1H-imidazo[4,5-c]quinolin-1-yl)-2-methylpropan-2-ol], for which the melting point fell in the range of 175 to 176 °C.

`CCOCc1nc2c(N)nc3cc(-c4ccccc4)ccc3c2n1CCCCN1CCCS1(=O)=O` [Example 152, 1-[4-(1,1-Dioxidoisothiazolidin-2-yl)butyl]-2-ethoxymethyl-7-phenyl-1H-imidazo[4,5-c]quinolin-4-amine] returned a melting point of 167 to 168.5 °C.

`CCOCc1nc2c(N)nc3cc(-c4cccnc4)ccc3c2n1CCCCN1CCCS1(=O)=O` [Example 153, 1-[4-(1,1-Dioxidoisothiazolidin-2-yl)-butyl]-2-ethoxymethyl-7-(pyridin-3-yl)-1H-imidazo[4,5-c]quinolin-4-amine]: the melting point lay within 171 to 173 °C.

Compound `CCOCc1nc2c(N)nc3cc(-c4ccncc4)ccc3c2n1CCCCN1CCCS1(=O)=O` [Example 154, 1-[4-(1,1-Dioxidoisothiazolidin-2-yl)-butyl]-2-ethoxymethyl-7-(pyridin-4-yl)-1H-imidazo[4,5-c]quinolin-4-amine] had a melting point of 186 to 187.5 °C.

`CCOCc1nc2c(N)nc3cc(-c4cncc(CO)c4)ccc3c2n1CCCCN1CCCS1(=O)=O` [Example 155, (5-{4-Amino-1-[4-(1,1-dioxidoisothiazolidin-2-yl)butyl]-2-ethoxymethyl-1H-imidazo[4,5-c]quinolin-7-yl}pyridin-3-yl)methanol]: the melting point lay within 184.5 to 186 °C.

The compound `CCOCc1nc2c(N)nc3cc(-c4cccc(CO)c4)ccc3c2n1CCCCN1CCCS1(=O)=O` [Example 156, (5-{4-Amino-1-[4-(1,1-dioxidoisothiazolidin-2-yl)butyl]-2-ethoxymethyl-1H-imidazo[4,5-c]quinolin-7-yl}phenyl)methanol] displayed a melting point of 158 to 161 °C.

`CCOCc1nc2c(N)nc3cc(-c4cccnc4)ccc3c2n1CCCCNC(=O)OC(C)(C)C` [Example 157, tert-Butyl {4-[4-amino-2-ethoxymethyl-7-(pyridin-3-yl)-1H-imidazo[4,5-c]quinolin-1-yl]butyl}carbamate]: the melting point was 117 to 119 °C.

With `CCCc1nc2c(N)nc3cc(-c4cccnc4)ccc3c2n1CCCCNC(=O)OC(C)(C)C` [Example 158, tert-Butyl {4-[4-amino-2-propyl-7-(pyridin-3-yl)-1H-imidazo[4,5-c]quinolin-1-yl]butyl}carbamate], the melting point was 136 to 138 °C.

In turn, `CCOCc1nc2c(N)nc3cc(-c4cccnc4)ccc3c2n1CC1COC(C)(C)O1` (stereo not shown) [Example 159, 1-[(2,2-Dimethyl-1,3-dioxolan-4-yl)methyl]-2-ethoxymethyl-7-(pyridin-3-yl)-1H-imidazo[4,5-c]quinolin-4-amine] came in with a melting point of 181 to 182 °C.

As to `CCOCc1nc2c(N)nc3cc(-c4ccc(CO)cc4)ccc3c2n1CC1COC(C)(C)O1` (stereo not shown) [Example 160, 1-[(2,2-Dimethyl-1,3-dioxolan-4-yl)methyl]-2-ethoxymethyl-7-(4-hydroxymethylphenyl)-1H-imidazo[4,5-c]quinolin-4-amine], the melting point fell in the range of 219 to 220 °C.

Broadly, the melting point is the temperature of the solid-liquid transition.
